Experimental data from publication PMC10177262, “A Novel CD206 Targeting Peptide Inhibits Bleomycin-Induced Pulmonary Fibrosis in Mice” (Cells, 2023).
“Also recorded” adds a separate entry of the source. No end group written: not given here.

Legend:
[1] = Toxicity study: body and organ weights, blood count, blood chemistry
[2] = tested on: IMR9 human fetal lung fibroblast cell line; experiment: Cytotoxicity in lung fibroblasts IMR9 / IMR91; type: cell-based; settings: 1μM - 100μM; three independent experiments in triplicate
Method: (§1) The RP-832c (RWKFGGFKWR) peptide was synthesized by PolyPeptide Laboratories, San Diego, CA, USA. BMDM cells were isolated and polarized as described previously. The cell viability of RP-832c-treated macrophages was determined using the live/dead viability assay as previously described. Human fetal lung fibroblast cell lines MRC5, IMR90, and IMR9 were purchased from the American Type Culture Collection (ATCC, Manassas, VA, USA) and were cultured according to ATCC protocols.
(§2) BMDM cells were isolated as described previously. Briefly, murine monocyte precursor cells were obtained by flushing out the bone marrow from the femur bones of 6–8-week-old healthy C57BL/6 mice. These precursor cells were then differentiated into M1 macrophages using 20 ng/mL of M-CSF and 20 ng/mL of IFN-γ and into M2 macrophages using 20 ng/mL of M-CSF and 20 ng/mL of IL-4 [29]. […]
(§3) Cell viability dose-response curves were determined using the Live/Dead Viability/Cytotoxicity Kit (Thermo Fisher Scientific, Waltham, MA, USA, Cat# L3224) using the manufacturer’s protocol. […] The images were taken and analyzed as described in the immunofluorescence assay section below. A total of 200 cells were counted manually from three different random 20× regions across three technical replicates, and the percentage of alive cells was calculated using GraphPad Prism version 8.0. […]

[3] = matrix and method not stated; no reference given; cited from earlier work
From the text: It is evident from various studies that macrophages are indispensable in tissue repair and subsequent fibrotic changes. […] M1 macrophages initiate host defense responses against pathogens by generating reactive nitric oxide (NO) via inducible nitric oxide synthase (iNOS), and by releasing proinflammatory cytokines and chemokines such as IL-1β, IL-12, IL-23, CCL2, and TNF-α. Meanwhile, M2 macrophages contribute to the pathogenesis of fibrosis ...

[4] = tested on: M1-polarized bone marrow-derived macrophages (BMDM); experiment: Live/Dead cell viability assay, M1 macrophages; type: cell-based, murine (C57BL/6 mice); settings: 48 h, 0–100 μM
Method: (§4) BMDM cells were isolated as described previously. Briefly, murine monocyte precursor cells were obtained by flushing out the bone marrow from the femur bones of 6–8-week-old healthy C57BL/6 mice. These precursor cells were then differentiated into M1 macrophages using 20 ng/mL of M-CSF and 20 ng/mL of IFN-γ and into M2 macrophages using 20 ng/mL of M-CSF and 20 ng/mL of IL-4 [29]. Human fetal lung fibroblast cell lines MRC5, IMR90, and IMR9 were purchased from the American Type Culture Collection (ATCC, Manassas, VA, USA) and were cultured according to ATCC protocols.
(§5) Cell viability dose-response curves were determined using the Live/Dead Viability/Cytotoxicity Kit (Thermo Fisher Scientific, Waltham, MA, USA, Cat# L3224) using the manufacturer’s protocol. Macrophages were seeded onto glass-bottom 96-well plates and polarized into M1 or M2 populations. Cells were treated with different concentrations of RP-832c for 48 h. After drug treatment, a 100 μL mixture of 2 μM calcein-AM and 4 μM ethidium homodimer was added and incubated for 1 h. The images were taken and analyzed as described in the immunofluorescence assay section below. A total of 200 cells were counted manually from three different random 20× regions across three technical replicates, and the percentage of alive cells was calculated using GraphPad Prism version 8.0. […]

[5] = tested on: M2-polarized bone marrow-derived macrophages (BMDM); type: cell-based, murine (C57BL/6 mice); settings: 48 h
Method: as §4, §5

[6] = tested on: MRC5 human fetal lung fibroblast cell line; experiment: Cytotoxicity in lung fibroblasts MRC5; type: cell-based
Method: as §1, §2, §3

[7] = tested on: CD206 in lung tissue; experiment: IHC staining of CD206 in lungs of BLM-treated mice; type: in vivo, mouse; settings: n=3 mice; vs naïve
Method: At the end of the study, the mice were sacrificed using CO2 followed by cervical dislocation (according to IACUC guidelines), and the lungs were collected and fixed in 10% formalin. After 48 h of fixation, the lungs were processed into tissue sections. The tissue sections were stained with both Hematoxylin/Eosin (H&E) (Sigma Aldrich, Burlington, MA, USA) and Masson Trichrome (Abcam, Waltham, MA, USA). Immunostaining was performed with the anti-CD206 (AF2535, 5 ug/mL, R&D Biosciences), TGF-β1 (MAB1835, 10 ug/mL, R&D Biosciences), and α-SMA (MAB1420, 10 ug/mL, R&D Biosciences, Minneapolis, MN, USA) antibodies as previously described. All slides were scanned using a Leica Aperio SC2 scanner and blindly evaluated by two independent pathologists. A total of 10 representative fields of 20× IHC images per tissue section were individually analyzed for the total number of cells/area using a confocal microscope (Olympus, New York, NY, USA). All quantitative data were normalized to appropriate control images.
We first sought to perform in silico validation of CD206 expression at various time points in both bleomycin-treated rat (GSE48455) and mouse models (GSE40151). […] Thus, the BLM model appears to be an appropriate model to determine the role of CD206 in lung fibrosis. […]
by different concentrations (0μM - 100μM) of RP-832c. […]

[8] = target: T1, CD206 (macrophage mannose receptor) (UniProt P22897); experiment: SPR
T1 chain: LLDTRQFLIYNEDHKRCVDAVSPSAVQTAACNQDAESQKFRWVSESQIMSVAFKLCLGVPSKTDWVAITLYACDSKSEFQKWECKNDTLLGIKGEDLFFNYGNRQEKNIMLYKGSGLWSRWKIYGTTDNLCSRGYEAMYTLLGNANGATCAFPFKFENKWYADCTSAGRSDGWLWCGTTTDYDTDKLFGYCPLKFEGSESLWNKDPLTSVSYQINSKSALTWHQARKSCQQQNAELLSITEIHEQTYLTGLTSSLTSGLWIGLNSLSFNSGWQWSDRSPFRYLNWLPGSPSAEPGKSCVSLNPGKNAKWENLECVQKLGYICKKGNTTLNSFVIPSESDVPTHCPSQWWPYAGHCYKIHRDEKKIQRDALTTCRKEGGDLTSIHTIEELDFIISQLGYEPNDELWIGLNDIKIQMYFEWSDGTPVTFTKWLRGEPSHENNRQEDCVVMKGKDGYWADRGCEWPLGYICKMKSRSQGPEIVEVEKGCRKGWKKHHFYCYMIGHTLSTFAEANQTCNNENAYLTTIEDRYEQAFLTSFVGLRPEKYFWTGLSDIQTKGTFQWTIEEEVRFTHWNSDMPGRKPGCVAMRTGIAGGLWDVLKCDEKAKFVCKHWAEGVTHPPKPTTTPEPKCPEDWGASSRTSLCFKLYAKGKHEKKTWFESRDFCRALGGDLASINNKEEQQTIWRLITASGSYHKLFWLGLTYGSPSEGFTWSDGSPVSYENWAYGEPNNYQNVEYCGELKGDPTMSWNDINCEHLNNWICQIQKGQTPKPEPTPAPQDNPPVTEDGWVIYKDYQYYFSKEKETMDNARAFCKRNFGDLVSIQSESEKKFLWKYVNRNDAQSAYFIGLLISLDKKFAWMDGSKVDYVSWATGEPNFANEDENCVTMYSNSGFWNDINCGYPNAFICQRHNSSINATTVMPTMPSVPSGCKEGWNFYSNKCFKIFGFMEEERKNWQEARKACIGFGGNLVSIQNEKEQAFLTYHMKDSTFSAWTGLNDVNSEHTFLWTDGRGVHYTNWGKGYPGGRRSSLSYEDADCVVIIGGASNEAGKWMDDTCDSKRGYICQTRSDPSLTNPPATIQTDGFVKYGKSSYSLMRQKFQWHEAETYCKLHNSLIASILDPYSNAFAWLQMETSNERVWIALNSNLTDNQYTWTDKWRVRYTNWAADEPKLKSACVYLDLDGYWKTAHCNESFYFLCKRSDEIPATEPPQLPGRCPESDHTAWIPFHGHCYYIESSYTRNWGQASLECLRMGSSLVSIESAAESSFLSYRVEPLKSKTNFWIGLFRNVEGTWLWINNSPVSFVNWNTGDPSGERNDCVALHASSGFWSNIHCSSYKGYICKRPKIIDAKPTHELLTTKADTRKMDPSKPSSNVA

RWKFGGFKWR [RP-832c]
AST, Mean Difference ([1]; 50 mg/kg vs saline, p 0.1237): −48.8
Phosphorus, Mean Difference ([1]; 50 mg/kg vs saline, p 0.2623): -1.1 mg/dL
BUN, Mean Difference ([1]; 50 mg/kg vs saline, p 0.3087): 1.6 mg/dL
Albumin, Mean Difference ([1]; 50 mg/kg vs saline, p 0.3982): 0.2 g/dL
Globulin, Mean Difference ([1]; 50 mg/kg vs saline, p 0.4413): 0.1 g/dL
Total Protein, Mean Difference ([1]; 50 mg/kg vs saline, p 0.5797): 0.3 g/dL
Creatinine, Mean Difference ([1]; 50 mg/kg vs saline, p not given): 0.0 mg/dL
body weight ([1]; 50mg/kg, CD1 mice, vs vehicle): did not have any significant effect on body weight
Creatinine ([1]; 50 mg/kg, n = 10, saline n = 5: 0.2 ± 0): 0.2 ± 0 mg/dL
Globulin ([1]; 50 mg/kg, n = 10, saline n = 5: 2.6 ± 0.5): 2.7 ± 0.2 g/dL
Albumin ([1]; 50 mg/kg, n = 10, saline n = 5: 2.9 ± 0.3): 3.1 ± 0.3 g/dL
Total Protein ([1]; 50 mg/kg, n = 10, saline n = 5: 5.6 ± 0.8): 5.9 ± 0.5 g/dL
Phosphorus ([1]; 50 mg/kg, n = 10, saline n = 5: 8.8 ± 2.4): 7.7 ± 0.5 mg/dL
BUN ([1]; 50 mg/kg, n = 10, saline n = 5: 22.4 ± 3.4): 24.0 ± 4.3 mg/dL
ALT ([1]; 50 mg/kg, n = 10, saline n = 5: 35.8 ± 18.9): 27.2 ± 10 U/L
AST ([1]; 50 mg/kg, n = 10, saline n = 5: 140.0 ± 75.5): 91.2 ± 21.7 U/L
body weight, organ weights, complete blood count and blood chemistry ([1]; 50 mg/kg, vs vehicle): no apparent toxicities observed; also recorded: No significant differences were observed
complete blood cell count ([1]; 50 mg/kg, vs vehicle): does not significantly affect the complete blood cell count
organ weights ([1]; 50 mg/kg, vs vehicle): lacks any significant
cytotoxicity against IMR9 (IMR91) fibroblasts [2]: did not show cytotoxicity; also recorded: lacking any cytotoxicity
half-life compared to RP-182 [3]: increased half-life compared to RP-182
stability compared to RP-182 [3]: enhanced stability
cytotoxicity in M1 macrophages [4]: only minimal cytotoxicity
IC50 [5]: ~6 µM
cytotoxicity against MRC5 fibroblasts ([6]; 1μM - 100μM, three independent experiments in triplicate): did not show cytotoxicity; also recorded: lacking any cytotoxicity
proliferation of fibroblast cell lines ([6]; multiple fibroblast cell lines cultured in vitro): did not observe any significant effect on the proliferation of multiple fibroblast cell lines; also recorded: did not observe direct inhibitory effects on the fibroblast cell lines

bleomycin
CD206 expression in lungs of BLM-treated mice (IHC) [7]: upregulated

RWKFGGFKWR [RP-832c]
Kd [8]: ~3.5 µM
